{"source": "patent US20240415846A1", "about": "“METHOD OF TREATING AMYOTROPHIC LATERAL SCLEROSIS AND DOSING REGIMEN FOR SAME” (Woolsey Pharmaceuticals, Inc., priority 2021, published 2024)", "origin": "cited, not measured here", "conditions": "1-hydroxy (M3) metabolite formed in vivo; Shibuya 2001; cited from earlier work"}
{"smiles": "O=S(=O)(c1cccc2c(O)nccc12)N1CCCNCC1", "note": "[M3]", "values": [{"measurement": "half-life", "value": "about 8 hours"}]}
